Assay results published in ChEMBL document CHEMBL1144963, “Polyacylated neohesperidosides from Geranium caespitosum: bacterial multidrug resistance pump inhibitors” (2003).

Experiments:
Assay type in all cases: functional
[1] = tested on: Bacillus subtilis; test: Antimicrobial activity against Bacillus subtilis in combination with Ciprofloxacin and 10 ug/mL of compound 4 (alone MIC= 0.8 ug/mL)
[2] = tested on: Priestia megaterium; test: Antimicrobial activity against Bacillus megaterium in combination with Rhein and 10 ug/mL of compound 4 (alone MIC= 4 ug/mL)
[3] = tested on: Staphylococcus aureus; test: Antimicrobial activity against NorA Staphylococcus aureus in combination with Ciprofloxacin and 10 ug/mL of compound 4 (alone MIC= 0.2 ug/mL)
[4] = tested on: Bacillus subtilis; test: Antimicrobial activity against Bacillus subtilis in combination with Norfloxacin and 10 ug/mL of compound 4 (alone MIC= 1 ug/mL)
[5] = tested on: Staphylococcus aureus; test: Antimicrobial activity against Staphylococcus aureus in combination with Berberine and 10 ug/mL of compound 4 (alone MIC= 500 ug/mL)
[6] = tested on: Staphylococcus aureus; test: Antimicrobial activity against Staphylococcus aureus in combination with Rhein and 10 ug/mL of compound 4 (alone MIC= 4 ug/mL)
[7] = tested on: Priestia megaterium; test: Antimicrobial activity against Bacillus megaterium in combination with Berberine and 10 ug/mL of compound 4 (alone MIC= 125 ug/mL)
[8] = tested on: Staphylococcus aureus; test: Antimicrobial activity against Staphylococcus aureus in combination with Norfloxacin and 10 ug/mL of compound 4 (alone MIC= 1 ug/mL)
[9] = tested on: Bacillus subtilis; test: Antimicrobial activity against Bacillus subtilis in combination with Berberine and 10 ug/mL of compound 4 (alone MIC= 500 ug/mL)
[10] = tested on: Staphylococcus aureus; test: Antimicrobial activity against NorA Staphylococcus aureus in combination with Rhein and 10 ug/mL of compound 4 (alone MIC= 4 ug/mL)
[11] = tested on: Bacillus subtilis; test: Antimicrobial activity against Bacillus subtilis in combination with Rhein and 10 ug/mL of compound 4 (alone MIC= 16 ug/mL)
[12] = tested on: Priestia megaterium; test: Antimicrobial activity against Bacillus megaterium in combination with Ciprofloxacin and 10 ug/mL of compound 4 (alone MIC= 0.8 ug/mL)
[13] = tested on: Staphylococcus aureus; test: Antimicrobial activity against Staphylococcus aureus in combination with Ciprofloxacin and 10 ug/mL of compound 4 (alone MIC= 0.5 ug/mL)
[14] = tested on: Staphylococcus aureus; test: Antimicrobial activity against NorA Staphylococcus aureus in combination with Norfloxacin and 10 ug/mL of compound 4 (alone MIC= 0.4 ug/mL)
[15] = tested on: Priestia megaterium; test: Antimicrobial activity against Bacillus megaterium in combination with Norfloxacin and 10 ug/mL of compound 4 (alone MIC= 1 ug/mL)
[16] = tested on: Staphylococcus aureus; test: Antimicrobial activity against NorA Staphylococcus aureus in combination with Berberine and 10 ug/mL of compound 4 (alone MIC= 64 ug/mL)

MIC [1]: 0.1 µg/mL
MIC [2]: 1 µg/mL
MIC [3]: 0.1 µg/mL
MIC [4]: 0.2 µg/mL
MIC [5]: 3.12 µg/mL
MIC [6]: 1 µg/mL
MIC [7]: 6.25 µg/mL
MIC [8]: 0.2 µg/mL
MIC [9]: 125 µg/mL
MIC [10]: 1 µg/mL
MIC [11]: 4 µg/mL
MIC [12]: 0.1 µg/mL
MIC [13]: 0.1 µg/mL
MIC [14]: 0.1 µg/mL
MIC [15]: 0.2 µg/mL
MIC [16]: 1.56 µg/mL
SMILES: CCCCOC1OC(COC(=O)C(C)C)C(OC(=O)C(C)C)C(O)[C@H]1O[C@@H]1OC(C)C(OC(=O)C(C)C)C(OC(C)=O)C1OC(=O)CCCC (stereo partly specified)
